These are literature values, as cited in US9592004B2, “Methods and systems for managing epilepsy and other neurological disorders” (CYBERONICS, INC., priority 2005, dated 2017).

Read-outs that look alike come from different tables or passages of the source.

For data set [1], the system named is sodium channels. The settings on record: in vitro.
The subject of data set [2] is cultured mouse spinal cord neurons. As to conditions: 10-30 μg/mL.
Data set [3] concerns rat hippocampal slices. The settings on record: 10-30 μg/mL.
In data set [4] the test system is partial seizures. As to conditions: controlled trials, adjunctive therapy, adults, oral.
In data set [5] the test system is carbonic anhydrase.
The test system of data set [6] is GABA/benzodiazepine receptor ionophore complex. The settings on record: in vitro; does not produce changes in chloride flux.
Data set [7] deals with T-type Ca^2+ currents. The settings on record: in vitro.
In data set [8] the test system is dopaminergic and serotonergic neurotransmission. The settings on record: in vivo microdialysis.
Test in data set [9]: not given
The source holds these as a separate data set.

For data set [10], the system named is seizures.
Data set [11] has as its system seizure. As to conditions: intranasal.
Setting [12] is: long term therapy, per daily dose of 1 mg/kg of primidone.

As to `CCC1(c2ccccc2)C(=O)NCNC1=O` [primidone, Primidone], the average plasma concentration result under setting [12] is on record as “about 1 μg/ml”.
For the compound `NS(=O)(=O)Cc1noc2ccccc12` [zonisamide, 1,2-benzisoxazole-3-methanesulfonamide], in data set [1], the “effect on sodium channels” value is “blocks sodium channels”. Moreover, in [2], the “effect on synaptically-driven electrical activity” value was “suppresses synaptically-driven electrical activity”. Besides, the “effect on postsynaptic GABA or glutamate responses” value in data set [2] (cultured mouse spinal cord neurons) is recorded as “without affecting postsynaptic GABA or glutamate responses”. For the same compound, in [3], the “effect on neuronal or glial uptake of [3H]-GABA” value was “without affecting”. The effective doses in data set [4] was 100 to 600 mg/day. In addition, the “carbonic anhydrase inhibiting activity” value in data set [5] is given as “weak carbonic anhydrase inhibiting activity”. Further, the “binding to GABA/benzodiazepine receptor ionophore complex” value in data set [6] is given as “binds to the GABA/benzodiazepine receptor ionophore complex in an allosteric fashion”. The “effect on T-type Ca2+ currents” value in data set [7] was “reduces voltage-dependent, transient inward currents”. Moreover, the “effect on dopaminergic and serotonergic neurotransmission” value in data set [8] was “facilitates both dopaminergic and serotonergic neurotransmission”.
For the compound `CCC1(C)CC(=O)NC1=O` (stereo not shown) [ethosuximide, Ethosuximide], the average plasma concentration result (long-term therapy, per daily dose of 1 mg/kg) was “about 2 μg/ml”.
Consider `O=C1NC(=O)C(c2ccccc2)(c2ccccc2)N1` [Phenytoin, diphenylhydantoin], for which the “concentration at which toxic effects such as nystagmus develop” value in data set [9] was “around 20 μg/ml”. For the same compound, the “concentration giving chronic control of seizures” value in data set [10] is “above 10 μg/ml”.
With `CCC1(c2ccccc2)C(=O)NC(=O)NC1=O` [phenobarbital, Phenobarbital], the average plasma concentration entry is reported as “about 10 μg/ml” (long term therapy in adults, per daily dose of 1 mg/kg) and “about 2 μg/ml” under setting [12].
Consider `Cc1ncc2n1-c1ccc(Cl)cc1C(c1ccccc1F)=NC2` [Midazolam, midazolam], for which the “time to terminate a seizure” value in data set [11] is 30 s.
